Experimental data as given in patent US20250228864A1, “THERAPIES FOR THE TREATMENT OF INFLAMMATORY BOWEL DISEASE” (Gilead Sciences, Inc., priority 2023, published 2025).

Columns and labels:
[1] = First-in-human Part A: plasma PK after single ascending doses of Formula (III); assay type: in vivo
Protocol: This was a 3-part study to evaluate pharmacokinetics, safety, tolerability, and pharmacodynamics of the Formula (III) compound in healthy volunteers. • To understand the single-dose PK, safety, tolerability, and PD of Formula (III) and its active metabolite, subjects in Part A received a single dose of Formula (III) in the fasting state in a dose-escalating manner. […]
Formula (III) is a prodrug of Formula (I). Plasma concentrations of Formula (III) metabolite was determined, and PK parameters estimated. Plasma concentrations of Formula (III) and/or its metabolites were determined, and PK explored, as appropriate.
Concentrations of Formula (III) and the metabolite, in plasma samples were determined using fully validated high-performance liquid chromatography-tandem mass spectrometry (LC-MS/MS) bioanalytical methods. All samples were analyzed in the timeframe supported by frozen stability storage data. […]

[2] = First-in-human Part B: plasma PK after once-daily dosing of Formula (III) for 14 days; assay type: in vivo
Text: Part B (MAD Cohorts 6-10) consisted of up to 5 randomized, blinded (Sponsor-unblinded), placebo-controlled, MAD cohorts. Within each cohort 12 unique subjects were randomized 3:1 to receive blinded Formula (III) (N=9) or PTM Formula (III) (N=3). All subjects within each cohort received Formula (III) at the same dosing frequency.
Subjects enrolled in Part B received either blinded Formula (III) or PTM Formula (III) twice daily or once daily for 14 days. All subjects within each cohort received study drug at the same dosing frequency.
All study drugs in Part B (except Cohort 10 which will be administered under fasting conditions) were administered in the morning and evening following a standard meal (twice daily dosing), or only in the morning (daily dosing) following a standard meal except for Cohort 10.
Concentrations of Formula (III) and the metabolite, in plasma samples were determined using fully validated high-performance liquid chromatography-tandem mass spectrometry (LC-MS/MS) bioanalytical methods. All samples were analyzed in the timeframe supported by frozen stability storage data. The assays for Formula (III), and the metabolite were performed using methods validated by QPS, LLC (Newark, DE, USA).

plasma exposures of the prodrug Formula (III) compared with the active metabolite [1]: negligible
metabolite multiple-dose exposure, 200-mg tablet fasting versus 500-mg nonfasting capsule [2]: slightly lower
SMILES: CCOC(=O)[C@H](Cc1ccc(-n2c(=O)c3ccncc3n(C)c2=O)c2ncccc12)NC(=O)c1c(C)cc(N2CCOC[C@@H]2C(F)(F)F)cc1F (atropisomer, axis not shown) [Formula (III)]
